Like-named read-outs stand apart in the source and are kept apart here.

Drawing on patent US20250032623A1, “HETEROBIFUNCTIONAL COMPOUNDS AND THEIR USE IN TREATING DISEASE” (HALDA THERAPEUTICS OPCO, INC., priority 2021, published 2025), this text covers GI50 for 6 compounds.

One experiment concerns HeLa cells. As to the kind of experiment: Cellular growth inhibition assay (CellTiter-Glo), HeLa cells. To be noted: three days compound treatment, CellTiter-Glo 2.0, read-out: CTG HELA GI50. Type of experiment: cell-based. As for the experimental part:
(§1) Exemplary compounds were tested for ability to inhibit the proliferation of HEK293 cells or HeLa cells.
(§2) HEK293 and HeLa cells were cultured in DMEM medium supplemented with 10% fetal bovine serum and 1% Penn/Strep. Cells were seeded in white 384-well plates at 500 cells/well in […] complete medium. Following seeding, plates were spun at 300×g for three minutes and cultured at 37° C. with 5% CO2 in a humidified tissue culture incubator.
(§3) After 24 hours, compounds were titrated in 100% DMSO and diluted in complete cell culture medium. […] of compound/media mixture was added to cells to bring total volume in well to […]. DMSO alone was used as a negative control. P lates were then spun at 300×g for three minutes and stored at 37° C. with 5% CO2 for three days.
(§4) On Day 0 and Day 3 of compound treatment, cell viability was quantified with CellTiter-Glo 2.0 reagent (Promega). After equilibrating microplates at room temperature for 30 minutes, 25 μL CellTiter-Glo 2.0 reagent was dispensed into each well to bring total volume to […]. Plates were mixed on shaker for 2 minutes at 500 rpm, followed by a 10-minute incubation at room temperature. Following a quick spin, luminescence readings were measured with an EnVision Plate Reader. Data was normalized to DMSO treated Day 0 and Day 3 readings. A four-parameter non-linear regression curve fit was applied to dose-response data in GraphPad Prism data analysis software to determine the half maximal growth inhibitory concentration (GI50) for each compound.
For orientation: In ATP-based viability assays light output follows the ATP content of the culture.

For a further experiment, the system named is HEK293 cells. As to the kind of experiment: Cellular growth inhibition assay (CellTiter-Glo), HEK293 cells. The settings on record: three days compound treatment, CellTiter-Glo 2.0, read-out: CTG HEK293 GI50. Type of experiment: cell-based. As for the experimental part: as §1, §2, §3, §4

On to `CCc1cnn2c(NCc3ccc(OCCOCCOCCOCCOCCN(C)C/C=C/C(=O)N4CCN(c5nc(=O)n(-c6c(C)ccnc6C(C)C)c6nc(-c7c(O)cccc7F)c(F)cc56)[C@@H](C)C4)nc3)cc(N3CCCC[C@H]3CCO)nc12` [Compound I-76], for which the GI50 (usually the concentration at which growth is held to half of that of the control) was above 5 µM in the experiment with HeLa cells (Homo sapiens, 72 h) and above 5 µM in the experiment on HEK293 cells (Homo sapiens, 72 h).

In the case of `Cc1c(CC(=O)N(C)C)ccc(NC(=O)c2nn([C@@H]3CCCN(C(=O)/C=C/CN(C)CCOCCOCC(=O)NCCCCn4nc(-c5ccc6oc(N)nc6c5)c5c(N)ncnc54)C3)c3ncnc(N)c23)c1C` [Compound I-83, 4-amino-1-[(3R)-1-[(E)-4-[2-1[2-[2-[4-[4-amino-3-(2-amino-1,3-benzoxazol-5-yl)pyrazolo[3,4-d]pyrimidin-1-yl]butylamino]-2-oxo-ethoxy]ethoxy]ethyl-methyl-amino]but-2-enoyl]-3-piperidyl]-N-[4-[2-(dimethylamino)-2-oxo-ethyl]-2,3-dimethyl-phenyl]pyrazolo[3,4-d]pyrimidine-3-carboxamide], the values for the GI50 with HeLa cells and in the experiment on HEK293 cells were above 5 µM and 1.5 to 5 µM, respectively.

`C=CC(=O)NC1CN(c2nc(Nc3cn(CCOCCOCCOCCOCCOCCOCCNC(=O)c4ccc(Nc5ncc6c(n5)N(C5CCCC5)[C@H](CC)C(=O)N6C)c(OC)c4)nc3OC)c3ncn(C)c3n2)C[C@H]1F` (stereo partly drawn) [Compound I-114, 4-[[(7R)-8-cyclopentyl-7-ethyl-5-methyl-6-oxo-7H-pteridin-2-yl]amino]-N-[2-[2-[2-[2-[2-[2-[2-[4-[[2-[(3R)-3-fluoro-4-(prop-2-enoylamino)pyrrolidin-1-yl]-9-methyl-purin-6-yl]amino]-3-methoxy-pyrazol-1-yl]ethoxy]ethoxy]ethoxy]ethoxy]ethoxy]ethoxy]ethyl]-3-methoxy-benzamide]: the GI50 with HEK293 cells (Homo sapiens, 72 h) was 1.5 to 5 µM.

Take `CC[C@@H]1C(=O)N(C)c2cnc(Nc3ccc(C(=O)NCCN(C)C/C=C/C(=O)Nc4cc(Nc5nccc(-c6cn(C)c7ccccc67)n5)c(OC)cc4N(C)CCN(C)C)cc3OC)nc2N1C1CCCC1` [Compound I-116, 4-[[(7R)-8-cyclopentyl-7-ethyl-5-methyl-6-oxo-7H-pteridin-2-yl]amino]-N-[2-[[(E)-4-1[2-[2-(dimethylamino)ethyl-methyl-amino]-4-methoxy-5-[[4-(1-methylindol-3-yl)pyrimidin-2-yl]amino]anilino]-4-oxo-but-2-enyl]-methyl-amino]ethyl]-3-methoxy-benzamide]: the GI50 in the experiment on HEK293 cells (Homo sapiens, 72 h) lay in the range of 1.5 to 5 µM.

As for `CC[C@@H]1C(=O)N(C)c2cnc(Nc3ccc(C(=O)NCCN(C)C/C=C/C(=O)NC4CN(c5nc(Nc6cn(C)nc6OC)c6ncn(C)c6n5)C[C@H]4F)cc3OC)nc2N1C1CCCC1` (stereo partly drawn) [Compound I-119, 4-[l[(7R)-8-cyclopentyl-7-ethyl-5-methyl-6-oxo-7H-pteridin-2-yl]amino]-N—[2-[ [(E)-4-[ [(3R,4R)-4-fluoro-1-[6-[(3-methoxy-1-methyl-pyrazol-4-yl)amino]-9-methyl-purin-2-yl]pyrrolidin-3-yl]amino]-4-oxo-but-2-enyl]-methyl-amino]ethyl]-3-methoxy-benzamide], the GI50 with HEK293 cells (Homo sapiens, 72 h) fell in the range of 1.5 to 5 µM.

In the case of `C=CC(=O)N[C@@H]1CN(c2nc(Nc3cn(CCOCCOCCNS(=O)(=O)c4ccc(Nc5ncc(Br)c(Nc6cccc(F)c6C(N)=O)n5)cc4)nc3OC)c3ncn(C)c3n2)C[C@H]1F` [Compound I-142, 2-[[5-bromo-2-[4-[2-[2-[2-[4-[[2-1[(3R,4R)-3-fluoro-4-(prop-2-enoylamino)pyrrolidin-1-yl]-9-methyl-purin-6-yl]amino]-3-methoxy-pyrazol-1-yl]ethoxy]ethoxy]ethylsulfamoyl]anilino]pyrimidin-4-yl]amino]-6-fluoro-benzamide], the GI50 was 1.5 to 5 µM in the experiment on HeLa cells and above 5 µM in the experiment on HEK293 cells.
